The test system of one data set is AD38 cells. Put plainly: Viability of AD38 cells, Promega CellTiter-Glo. The settings on record: 6 days incubation, controls being 100%. The class given is cell-based. On the procedure: (§1) Assay Measuring Activity of Compounds on Viral Production in and on Viability of AD38 Cells
(§2) AD38 cells grown in a 175 cm flask with “Growth Medium” (DMEM/F12 (1:1) (cat #SH30023.01, Hyclone, 1×Pen/step (cat #: 30-002-CL, Mediatech, Inc), 10% FBS (cat #: 101, Tissue Culture Biologics), 250 μg/mL G418 (cat #: 30-234-CR, Mediatech, Inc), 1 μg/mL Tetracycline (cat #: T3325, Teknova)) were detached with 0.25% trypsin. Tetracycline-free “treatment medium” (15 mL DMEM/F12 (1:1) (cat #SH30023.01, Hyclone, 1×Pen/step (cat #: 30-002-CL, Mediatech, Inc), with 2% FBS, Tet-system approved (cat #: 631106, Clontech) were then added to mix and spun at 1300 rpm for 5 min. Pelleted cells were then re-suspended/washed with 50 mL of 1×PBS 2 times and 10 mL Treatment Medium one time. AD38 cells were then re-suspended with 10 mL of Treatment Medium and counted. Wells of a collagen coated 96-well NUNC microtiter plate were seeded at 50,000/well in 180 μL of Treatment Medium, and 20 μL of in treatment media with either 10% DMSO (Control) or a 10× solution of compound in 10% DMSO was added. Plates were incubated for 6 days at 37° C.
At the end of compound treatment period cell viability was assessed using a Promega CellTiter-Glo protocol. All supernatant was removed the previously treated 96-well microtiter plate, and 50 μL Tetracycline-free treatment medium (DMEM/F12 (1:1), 1×Pen/step (cat #: 30-002-CL, Mediatech, Inc), with 2% FBS, Tet-system approved (cat #: 631106, Clontech), and 1% DMSO was added back to each well. Another 50 μL of CellTiter-Glo reagent solution (Promega, G7573) was then added at room temperature and the contents mixed for 2 minutes on an orbital shaker to induce cell lysis. This was followed by incubation at room temperature for 10 minutes to stabilize the luminescent signal. The luminescence was recorded for 0.2 seconds per well on a Tecan multimode platereader (Infinite M1000 pro). The luminescent signal from each well was normalized against that of untreated (DMSO) control wells. All results in Tables 3-6 were reported with percent viability (with controls being 100%).
Background: ATP-based viability assays read luminescence as a measure of living cells.

Data set [1] concerns HBV viral load in AD38 cells. The data set can be described thus: Viral load production in AD38 cells, quantitative PCR of the core sequence in supernatant. The class given is cell-based. The settings on record: 6 days incubation; for activity at 10 µM: Hepatitis B virus, 144 h, Table 4, compounds of Group 2, read-out: AD38 Viral Load (%) (VL with cmpd/VL in DMSO control) at 10 μM. On the procedure:
as §1, §2
Viral load production was assayed by quantitative PCR of the core sequence. Briefly, 5 μL of clarified supernatant was added to a PCR reaction mixture that contained forward primers HBV-f 5′-CTGTGCCTTGGGTGGCTTT-3′, Reverse primers HBV-r 5′-[…]-3′ and Fluorescent TaqMan™ Probes HBV-probe 5′-FAM/AGCTCCAAA/ZEN/[…]/3IABkFQ-3′ in Quanta Biosciences PerfeCTa® qPCR Toughmix®, and was subsequently on an Applied Biosystems VIIA7 in a final volume of 20 μL. The PCR mixture was incubated at 45° C. for 5 minutes, then 95° C. for 10 min, followed by 40 cycles of 10 seconds at 95° C. and 20 seconds at 60° C. Viral load was quantitated against known standards by using ViiA™ 7 Software. Viral load in the supernatant from wells with treated cells were compared against viral load in supernatant from DMSO control wells (≥3 per plate).

Consider `Cc1c(C(=O)NCc2cnc(-c3ccc(OCCCN(C)C)cc3)s2)ccc2c1NC(=O)c1ccncc1S2(=O)=O` [Compound C22-01], for which the “AD38 Viability Normalized Result (cmpd/DMSO %) at 10 μM” value with AD38 cells (Table 4, compounds of Group 2) turned out to be 92%. The activity at 10 µM in data set [1] was 7.1%.

`Cc1c(C(=O)NCc2cnc(-n3cccn3)s2)ccc2c1NC(=O)c1ccncc1S2(=O)=O` [Compound C22-02]: the “AD38 Viability Normalized Result (cmpd/DMSO %) at 10 μM” value in the data set with AD38 cells (Table 4, compounds of Group 2) turned out to be 85%. Moreover, in data set [1], the activity at 10 µM was 0.9%.

As for `Cc1c(C(=O)NCc2cnc(-c3ccc(C#N)cc3F)s2)ccc2c1NC(=O)c1ccncc1S2(=O)=O` [Compound C22-03], the “AD38 Viability Normalized Result (cmpd/DMSO %) at 10 μM” value in the data set on AD38 cells (Table 4, compounds of Group 2) is reported as 90%. Moreover, the activity at 10 µM in data set [1] is 0.5%.

As to `N#Cc1ccc(-c2ncc(CNC(=O)c3ccc4c(c3)NC(=O)C3CCCN3S4(=O)=O)s2)c(F)c1` (stereo not shown) [Compound C24-02], the “AD38 Viability Normalized Result (cmpd/DMSO %) at 10 μM” value in the data set on AD38 cells (Table 4, compounds of Group 2) is listed as 100%. Further, the activity at 10 µM in data set [1] is 43%.

In the case of `O=C(NCc1cnc(-n2cccn2)s1)c1ccc2c(c1)NC(=O)C1CCCN1S2(=O)=O` (stereo not shown) [Compound C24-04], in the data set on AD38 cells (Table 4, compounds of Group 2), the “AD38 Viability Normalized Result (cmpd/DMSO %) at 10 μM” value turned out to be 104%. Also, in data set [1], the activity at 10 µM amounted to 7.7%.

In the case of `N#Cc1ccc(-c2ncc(CNC(=O)c3ccc4c(c3)NC(=O)C3CCCCN3S4(=O)=O)s2)c(F)c1` (stereo not shown) [Compound C25-02], the “AD38 Viability Normalized Result (cmpd/DMSO %) at 10 μM” value in the data set on AD38 cells (Table 4, compounds of Group 2) was 95%. Also, the activity at 10 µM in data set [1] came out at 0.5%.

For the compound `O=C(NCc1cnc(-n2cccn2)s1)c1ccc2c(c1)NC(=O)C1CCCCN1S2(=O)=O` (stereo not shown) [Compound C25-04], in the data set on AD38 cells (Table 4, compounds of Group 2), the “AD38 Viability Normalized Result (cmpd/DMSO %) at 10 μM” value amounted to 98%. Moreover, the activity at 10 µM in data set [1] is 5.4%.

Take `O=C1NC2=C(CCN(C(=O)NCc3cnc(-n4cccn4)s3)C2)S(=O)(=O)c2ccccc21` [Compound C43-01, N-((2-(1H-pyrazol-1-yl)thiazol-5-yl)methyl)-10-oxo-3,4,10,11-tetrahydrobenzo[f]pyrido[4,3-b][1,4]thiazepine-2(1H)-carboxamide 5,5-dioxide]: the “AD38 Viability Normalized Result (cmpd/DMSO %) at 10 μM” value in the data set on AD38 cells (Table 4, compounds of Group 2) is given as 97%. The activity at 10 µM in data set [1] came out at 64.4%.

In the case of `CN(C)CCCOc1ccc(-c2ncc(CNC(=O)c3ccc4c(c3)NC(=O)c3ccncc3S4(=O)=O)s2)cc1` [Compound C46-01], in the data set with AD38 cells (Table 4, compounds of Group 2), the “AD38 Viability Normalized Result (cmpd/DMSO %) at 10 μM” value is reported as 101%. The activity at 10 µM in data set [1] was found to be 8.5%.

Regarding `O=C(NCc1cnc(-n2cccn2)s1)c1ccc2c(c1)NC(=O)c1ccncc1S2(=O)=O` [Compound C46-02], the “AD38 Viability Normalized Result (cmpd/DMSO %) at 10 μM” value with AD38 cells (Table 4, compounds of Group 2) was 102%. Further, the activity at 10 µM in data set [1] turned out to be 0.9%.

For “ten-butyl (2-(4-(5-((5,5-dioxido-11-oxo-10,11-dihydrodibenzo[b,f][1,4]thiazepine-8-carboxamido) methyl) thiazol-2-yl) piperidin-1-yl)-2-oxoethyl) (methyl) carbamate [Compound 1035-A]”, in the data set on AD38 cells (Table 3, compounds of Group 1), the “AD38 Viability Normalized Result (cmpd/DMSO %) at 10 μM” value is recorded as 102%. Further, the “AD38 Viral Load (%) (VL with cmpd/VL in DMSO control) at 10 μM” value in data set [1] (Table 3, compounds of Group 1) worked out at 57.8%.
